Data: US10729130B2, “Nematicidal compositions and methods of using them” (Eden Research plc, priority 2004, dated 2020)
Each block holds one compound with its values, some of them ahead of it.

How the values were obtained:
Type in all cases: physicochemical
[1] = Terpene loading with surfactant, Tween-80:terpene ratio (free terpene score); design: key: Sl = slight; details: 250 mg/ml YP
Protocol: Samples were centrifuged at 14,000×g for 10 minutes and the appearance of free terpene floating on the aqueous layer was scored. The expression “free terpene” refers to the visible presence of terpene in the centrifuged reaction mixture. The absence of free terpene indicates complete absorption and encapsulation of the terpene by the YP. The highest volume of terpene absorbed by the YP, as evidenced by the absence of free terpene, was recorded as the maximal volume of absorbed terpene emulsion.

[2] = Screen of commercially available particles for terpene absorption (free terpene score); design: key: +: “free terpene” refers to the visible presence of terpene in the centrifuged reaction mixture; −: The absence of free terpene indicates complete absorption of the terpene by the particles; details: overnight
Protocol: The following protocol was performed to analyse the loading properties of different types of particles. The particles studied were Baker's Yeast Particles (Sigma Chemical Corp., St. Louis, Mo.), Nutrex™ Walls (Sensient Technologies, Milwaukee, Wis.), SAF-Mannan™ (SAF Agri, Minneapolis, Minn.), Nutricept Walls™ (Nutricepts Inc., Burnsville, Minn.), Levacan™ (Savory Systems International, Inc., Branchburg, N.J.) and WGP™ (Alpha-beta Technology, Inc. Worcester, Mass.).
The YP suspensions were prepared as follows: • Baker's yeast particle suspension (YP) was prepared by mixing 250 mg YP/ml 1% Tween 80. • Nutrex suspension was prepared by mixing 163 mg Nutrex YGP/ml 1% Tween 80. • SAF Mannan suspension was prepared by mixing 234 mg Biospringer YGP/ml 1% Tween 80. • Nutricepts suspension was prepared by mixing 99 mg Nutricepts YGP/ml 1% Tween 80. • Levacan suspension was prepared by mixing 217 mg Lev YGP/ml 1% Tween 80. • WGP suspension was prepared by mixing 121 mg WGP YGP/ml 1% Tween 80.
The packed volume of the above particles is identical which means that equal numbers of particles were assayed.
Loading reactions were set up as shown in Table 25 and left to incubate overnight. Samples were centrifuged at 14,000×g for 10 minutes and the appearance of free terpene floating on the aqueous layer and the color of the encapsulated terpenes in the pellet was scored. The highest volume of terpene absorbed by particles as evidenced by the absence of free terpene was recorded as the volume of absorbed terpene emulsion.

[3] = Kinetics of terpene loading into various particles at room temperature or 37° C.; design: key: +: “free terpene” refers to the visible presence of terpene in the centrifuged reaction mixture; −: The absence of free terpene indicates complete absorption of the terpene by the particles
Protocol: 1% Tween-80 solution was prepared by sonicating 1 ml 10% Tween-80 in 10 ml water. • Baker's YP was prepared by mixing 5 g of bakers YP in 20 ml 1% Tween-80. • Nutrex™ YGP suspension was prepared by mixing 2 g Nutrex™ YGP in 20 ml 1% Tween-80. • SAF Mannan™ suspension was prepared by mixing 2 g SAF Mannan™ in 20 ml 1% Tween-80.
The reactions were incubated for 1, 3, 6, 9 and 24 hours at room temperature or 37° C. After incubation samples were centrifuged at 14,000×g for 10 minutes and the appearance of free terpene floating on the aqueous layer was scored. The highest volume of terpene absorbed by the particles as evidenced by the absence of free terpene was recorded as the volume of absorbed terpene emulsion. Colour of the encapsulated pellet was scored at 24 hours.

[4] = Maximal citral and L-carvone loading in Baker's yeast particles (free terpene score); design: key to Free Terpene: +: “free terpene” refers to the visible presence of terpene in the centrifuged reaction mixture; −: The absence of free terpene indicates complete absorption of the terpene by the particles; details: for terpene emulsion absorbed and encapsulated per 10 mg of YP: Baker's YP 20 mg/ml; for Free Terpene: 500 μl 20 mg/ml YP, overnight room temperature
Protocol: Samples were centrifuged at 14,000×g for 10 minutes and the appearance of free terpene floating on the aqueous layer was scored. The expression “free terpene” refers to the visible presence of terpene in the centrifuged reaction mixture. The absence of free terpene indicates complete absorption of the terpene by the particles. The highest volume of terpene absorbed by the particles, as evidenced by the absence of free terpene, was recorded as the maximal volume of absorbed terpene emulsion.

[5] = Baker's 250 mg/ml, emulsion 125 μl L-carvone or 100 μl Citral
[6] = Levacan 217 mg/ml, emulsion 125 μl L-carvone or 100 μl Citral
[7] = Nutrex 163 mg/ml, emulsion 125 μl L-carvone or 100 μl Citral
[8] = Nutricepts 99 mg/ml, emulsion 125 μl L-carvone or 100 μl Citral
[9] = SAF Mannan 234 mg/ml, emulsion 125 μl L-carvone or 100 μl Citral
[10] = WGP 121 mg/ml, emulsion 125 μl L-carvone or 100 μl Citral
[11] = no particle, emulsion 125 μl L-carvone or 100 μl Citral in 1% Tween 80
[12] = 37 ° C., Bakers 250 mg/ml, emulsion 788 μl L-carvone or 525 μl Citral, 1 hr
[13] = 37 ° C., Bakers 250 mg/ml, emulsion 788 μl L-carvone or 525 μl Citral, 3 hr
[14] = 37 ° C., Bakers 250 mg/ml, emulsion 788 μl L-carvone or 525 μl Citral, 6 hr
[15] = 37 ° C., Bakers 250 mg/ml, emulsion 788 μl L-carvone or 525 μl Citral, 9 hr
[16] = 37 ° C., Bakers 250 mg/ml, emulsion 788 μl L-carvone or 525 μl Citral, 24 hr
[17] = 37 ° C., Nutrex 100 mg/ml, emulsion 1050 μl L-carvone or 788 μl Citral, 1 hr
[18] = 37 ° C., Nutrex 100 mg/ml, emulsion 1050 μl L-carvone or 788 μl Citral, 3 hr
[19] = 37 ° C., Nutrex 100 mg/ml, emulsion 1050 μl L-carvone or 788 μl Citral, 6 hr
[20] = 37 ° C., Nutrex 100 mg/ml, emulsion 1050 μl L-carvone or 788 μl Citral, 9 hr
[21] = 37 ° C., Nutrex 100 mg/ml, emulsion 1050 μl L-carvone or 788 μl Citral, 24 hr
[22] = 37 ° C., SAF 100 mg/ml, emulsion 1050 μl L-carvone or 788 μl Citral, 1 hr
[23] = 37 ° C., SAF 100 mg/ml, emulsion 1050 μl L-carvone or 788 μl Citral, 3 hr
[24] = 37 ° C., SAF 100 mg/ml, emulsion 1050 μl L-carvone or 788 μl Citral, 6 hr
[25] = 37 ° C., SAF 100 mg/ml, emulsion 1050 μl L-carvone or 788 μl Citral, 9 hr
[26] = 37 ° C., SAF 100 mg/ml, emulsion 1050 μl L-carvone or 788 μl Citral, 24 hr
[27] = Rt, Bakers 250 mg/ml, emulsion 788 μl L-carvone or 525 μl Citral, 1 hr
[28] = Rt, Bakers 250 mg/ml, emulsion 788 μl L-carvone or 525 μl Citral, 3 hr
[29] = Rt, Bakers 250 mg/ml, emulsion 788 μl L-carvone or 525 μl Citral, 6 hr
[30] = Rt, Bakers 250 mg/ml, emulsion 788 μl L-carvone or 525 μl Citral, 9 hr
[31] = Rt, Bakers 250 mg/ml, emulsion 788 μl L-carvone or 525 μl Citral, 24 hr
[32] = Rt, Nutrex 100 mg/ml, emulsion 1050 μl L-carvone or 788 μl Citral, 1 hr
[33] = Rt, Nutrex 100 mg/ml, emulsion 1050 μl L-carvone or 788 μl Citral, 3 hr
[34] = Rt, Nutrex 100 mg/ml, emulsion 1050 μl L-carvone or 788 μl Citral, 6 hr
[35] = Rt, Nutrex 100 mg/ml, emulsion 1050 μl L-carvone or 788 μl Citral, 9 hr
[36] = Rt, Nutrex 100 mg/ml, emulsion 1050 μl L-carvone or 788 μl Citral, 24 hr
[37] = Rt, SAF 100 mg/ml, emulsion 1050 μl L-carvone or 788 μl Citral, 1 hr
[38] = Rt, SAF 100 mg/ml, emulsion 1050 μl L-carvone or 788 μl Citral, 3 hr
[39] = Rt, SAF 100 mg/ml, emulsion 1050 μl L-carvone or 788 μl Citral, 6 hr
[40] = Rt, SAF 100 mg/ml, emulsion 1050 μl L-carvone or 788 μl Citral, 9 hr
[41] = Rt, SAF 100 mg/ml, emulsion 1050 μl L-carvone or 788 μl Citral, 24 hr
[42] = emulsion 0.5 μl, 10% Tween-80 500 μl
[43] = emulsion 1.65 μl, 10% Tween-80 500 μl
[44] = emulsion 5 μl, 10% Tween-80 495 μl
[45] = emulsion 50 μl, 10% Tween-80 450 μl
[46] = emulsion 165 μl, 10% Tween-80 335 μl

Compound: CC(C)=CCCC(C)=CC=O [Citral, citral]
Free Terpene ([1]; Citral emulsion 113 μl, 10% Tween-80 33 μl): Sl | Free Terpene ([1]; Citral emulsion 113 μl, 10% Tween-80 100 μl): Sl | Free Terpene [2, 5]: − | Free Terpene [2, 6]: + | Free Terpene [2, 7]: − | Free Terpene [2, 8]: + | Free Terpene [2, 9]: − | Free Terpene [2, 10]: + | Free Terpene [2, 11]: + | Free Terpene (hr) [3, 12]: + | Free Terpene (hr) [3, 13]: − | Free Terpene (hr) [3, 14]: − | Free Terpene (hr) [3, 15]: − | Free Terpene (hr) [3, 16]: − | Free Terpene (hr) [3, 17]: + | Free Terpene (hr) [3, 18]: − | Free Terpene (hr) [3, 19]: − | Free Terpene (hr) [3, 20]: − | Free Terpene (hr) [3, 21]: − | Free Terpene (hr) [3, 22]: + | Free Terpene (hr) [3, 23]: − | Free Terpene (hr) [3, 24]: − | Free Terpene (hr) [3, 25]: − | Free Terpene (hr) [3, 26]: − | Free Terpene (hr) [3, 27]: + | Free Terpene (hr) [3, 28]: − | Free Terpene (hr) [3, 29]: − | Free Terpene (hr) [3, 30]: − | Free Terpene (hr) [3, 31]: − | Free Terpene (hr) [3, 32]: + | Free Terpene (hr) [3, 33]: − | Free Terpene (hr) [3, 34]: − | Free Terpene (hr) [3, 35]: − | Free Terpene (hr) [3, 36]: − | Free Terpene (hr) [3, 37]: + | Free Terpene (hr) [3, 38]: − | Free Terpene (hr) [3, 39]: − | Free Terpene (hr) [3, 40]: − | Free Terpene (hr) [3, 41]: − | terpene emulsion absorbed and encapsulated per 10 mg of YP [4]: at least 5 μl | Free Terpene [4, 42]: − | Free Terpene [4, 43]: − | Free Terpene [4, 44]: − | Free Terpene [4, 45]: + | Free Terpene [4, 46]: + | Free Terpene ([4]; emulsion 500 μl, no Tween-80): +

Free Terpene ([1]; L-carvone emulsion 150 μl, 10% Tween-80 0 μl): Sl | Free Terpene ([1]; L-carvone emulsion 150 μl, 10% Tween-80 5 μl): Sl | Free Terpene ([1]; L-carvone emulsion 150 μl, 10% Tween-80 10 μl): Sl | Free Terpene ([1]; L-carvone emulsion 150 μl, 10% Tween-80 33 μl): Sl | Free Terpene [2, 5]: − | Free Terpene [2, 6]: + | Free Terpene [2, 7]: − | Free Terpene [2, 8]: + | Free Terpene [2, 9]: − | Free Terpene [2, 10]: + | Free Terpene [2, 11]: + | Free Terpene (hr) [3, 12]: + | Free Terpene (hr) [3, 13]: − | Free Terpene (hr) [3, 14]: − | Free Terpene (hr) [3, 15]: − | Free Terpene (hr) [3, 16]: − | Free Terpene (hr) [3, 17]: + | Free Terpene (hr) [3, 18]: − | Free Terpene (hr) [3, 19]: − | Free Terpene (hr) [3, 20]: − | Free Terpene (hr) [3, 21]: − | Free Terpene (hr) [3, 22]: <+ | Free Terpene (hr) [3, 23]: − | Free Terpene (hr) [3, 24]: − | Free Terpene (hr) [3, 25]: − | Free Terpene (hr) [3, 26]: − | Free Terpene (hr) [3, 27]: + | Free Terpene (hr) [3, 28]: − | Free Terpene (hr) [3, 29]: − | Free Terpene (hr) [3, 30]: − | Free Terpene (hr) [3, 31]: − | Free Terpene (hr) [3, 32]: + | Free Terpene (hr) [3, 33]: − | Free Terpene (hr) [3, 34]: − | Free Terpene (hr) [3, 35]: − | Free Terpene (hr) [3, 36]: − | Free Terpene (hr) [3, 37]: <+ | Free Terpene (hr) [3, 38]: − | Free Terpene (hr) [3, 39]: − | Free Terpene (hr) [3, 40]: − | Free Terpene (hr) [3, 41]: − | terpene emulsion absorbed and encapsulated per 10 mg of YP [4]: at least 16.5 μl | Free Terpene [4, 42]: − | Free Terpene [4, 43]: − | Free Terpene [4, 44]: − | Free Terpene ([4]; emulsion 16.5 μl, 10% Tween-80 483.5 μl): − | Free Terpene [4, 45]: + | Free Terpene [4, 46]: + | Free Terpene ([4]; emulsion 500 μl, no Tween-80): +
Compound: L-carvone
